Read-outs that look alike come from different tables or passages of the source.
Assays:
[1] = molecular target: T1, AEA-DA lipid probe targets in Neuro2a cells (Mus musculus, UniProt Q924Z4); conditions: for SILAC ratio, CERS2 (Q924Z4): Neuro2a cells, AEA-DA probe
T1 sequence (Q924Z4 1-380): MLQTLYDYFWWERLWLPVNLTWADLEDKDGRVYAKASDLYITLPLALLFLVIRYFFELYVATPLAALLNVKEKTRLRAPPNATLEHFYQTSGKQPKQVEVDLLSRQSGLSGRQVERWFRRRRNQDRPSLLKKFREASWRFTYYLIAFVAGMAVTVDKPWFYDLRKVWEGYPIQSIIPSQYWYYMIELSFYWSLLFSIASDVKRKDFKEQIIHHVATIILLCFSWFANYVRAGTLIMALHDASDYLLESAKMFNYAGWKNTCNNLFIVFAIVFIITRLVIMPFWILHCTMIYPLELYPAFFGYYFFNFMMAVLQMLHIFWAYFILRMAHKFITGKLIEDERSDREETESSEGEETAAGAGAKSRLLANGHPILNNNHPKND

[2] = molecular target: AEA-DA lipid probe targets in Neuro2a cells (Mus musculus, UniProt Q99KQ4)
Chain of AEA-DA lipid probe targets in Neuro2a cells (Mus musculus, UniProt Q99KQ4) (Q99KQ4 whole entry): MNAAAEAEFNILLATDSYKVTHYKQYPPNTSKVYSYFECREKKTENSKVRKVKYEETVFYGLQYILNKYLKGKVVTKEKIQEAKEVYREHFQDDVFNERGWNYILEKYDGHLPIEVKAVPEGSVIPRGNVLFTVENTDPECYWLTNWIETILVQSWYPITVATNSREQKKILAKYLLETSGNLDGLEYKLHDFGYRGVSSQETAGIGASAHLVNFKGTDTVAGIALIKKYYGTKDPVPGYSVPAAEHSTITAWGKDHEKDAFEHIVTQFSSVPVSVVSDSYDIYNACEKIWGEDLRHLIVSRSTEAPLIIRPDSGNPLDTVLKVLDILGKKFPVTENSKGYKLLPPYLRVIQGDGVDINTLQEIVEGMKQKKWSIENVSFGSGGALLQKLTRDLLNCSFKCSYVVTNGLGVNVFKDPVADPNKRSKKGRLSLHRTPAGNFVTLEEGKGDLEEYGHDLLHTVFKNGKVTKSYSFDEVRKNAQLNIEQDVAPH

[3] = molecular target: T2, AEA-DA lipid probe targets in Neuro2a cells (Mus musculus, UniProt O08579); conditions: for SILAC ratio, EMD (O08579): Neuro2a cells, AEA-DA probe
T2 sequence (O08579 1-259): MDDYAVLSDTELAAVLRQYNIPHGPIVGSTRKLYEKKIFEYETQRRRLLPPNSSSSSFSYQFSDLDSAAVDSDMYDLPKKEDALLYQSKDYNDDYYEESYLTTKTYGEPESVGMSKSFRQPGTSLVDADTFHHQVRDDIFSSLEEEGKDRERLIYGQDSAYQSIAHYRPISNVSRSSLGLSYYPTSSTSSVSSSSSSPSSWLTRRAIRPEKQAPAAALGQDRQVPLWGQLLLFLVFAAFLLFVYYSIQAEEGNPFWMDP

[4] = molecular target: T3, AEA-DA lipid probe targets in Neuro2a cells (Mus musculus, UniProt P57776)
T3 sequence (P57776 1-281): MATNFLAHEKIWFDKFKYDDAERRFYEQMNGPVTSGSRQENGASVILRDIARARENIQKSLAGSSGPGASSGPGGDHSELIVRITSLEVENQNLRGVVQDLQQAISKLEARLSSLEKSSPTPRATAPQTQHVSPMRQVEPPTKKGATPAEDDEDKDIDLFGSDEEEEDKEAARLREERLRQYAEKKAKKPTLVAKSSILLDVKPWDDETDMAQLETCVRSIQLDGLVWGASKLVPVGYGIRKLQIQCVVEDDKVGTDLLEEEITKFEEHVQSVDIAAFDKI

[5] = molecular target: AEA-DA lipid probe targets in Neuro2a cells (Mus musculus, UniProt Q9Z0V8)
Chain of AEA-DA lipid probe targets in Neuro2a cells (Mus musculus, UniProt Q9Z0V8) (Q9Z0V8 whole entry): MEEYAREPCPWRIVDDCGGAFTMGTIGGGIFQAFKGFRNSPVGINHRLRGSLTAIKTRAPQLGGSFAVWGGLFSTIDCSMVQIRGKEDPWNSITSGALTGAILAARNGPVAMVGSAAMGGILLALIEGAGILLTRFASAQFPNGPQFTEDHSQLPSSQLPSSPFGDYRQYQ

[6] = molecular target: T4, AEA-DA lipid probe targets in Neuro2a cells (Mus musculus, UniProt Q80W54)
T4 sequence (Q80W54 1-475): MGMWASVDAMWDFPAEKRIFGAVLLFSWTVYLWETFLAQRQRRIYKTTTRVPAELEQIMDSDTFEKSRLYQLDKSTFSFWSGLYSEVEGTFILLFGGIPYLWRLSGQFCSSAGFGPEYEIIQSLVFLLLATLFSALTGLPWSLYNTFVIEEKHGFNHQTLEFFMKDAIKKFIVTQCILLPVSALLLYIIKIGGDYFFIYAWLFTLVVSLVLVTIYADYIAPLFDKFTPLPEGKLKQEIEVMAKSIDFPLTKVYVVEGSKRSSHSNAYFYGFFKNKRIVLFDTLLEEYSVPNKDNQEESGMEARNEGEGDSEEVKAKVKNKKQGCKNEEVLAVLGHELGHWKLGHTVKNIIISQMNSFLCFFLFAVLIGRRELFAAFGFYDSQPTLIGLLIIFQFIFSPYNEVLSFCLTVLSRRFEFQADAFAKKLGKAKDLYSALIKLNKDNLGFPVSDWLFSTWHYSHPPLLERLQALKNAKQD

[7] = molecular target: T5, AEA-DA lipid probe targets in Neuro2a cells (Mus musculus, UniProt Q9D1D4)
T5 sequence (Q9D1D4 32-219): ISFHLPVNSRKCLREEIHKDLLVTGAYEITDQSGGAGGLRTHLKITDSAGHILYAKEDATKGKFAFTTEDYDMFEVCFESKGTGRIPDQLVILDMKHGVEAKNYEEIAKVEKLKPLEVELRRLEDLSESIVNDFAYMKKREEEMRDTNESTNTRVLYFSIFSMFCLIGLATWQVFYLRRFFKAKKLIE

[8] = molecular target: T6, AEA-DA lipid probe targets in Neuro2a cells (Mus musculus, UniProt Q8C0L0)
T6 sequence (Q8C0L0 21-335): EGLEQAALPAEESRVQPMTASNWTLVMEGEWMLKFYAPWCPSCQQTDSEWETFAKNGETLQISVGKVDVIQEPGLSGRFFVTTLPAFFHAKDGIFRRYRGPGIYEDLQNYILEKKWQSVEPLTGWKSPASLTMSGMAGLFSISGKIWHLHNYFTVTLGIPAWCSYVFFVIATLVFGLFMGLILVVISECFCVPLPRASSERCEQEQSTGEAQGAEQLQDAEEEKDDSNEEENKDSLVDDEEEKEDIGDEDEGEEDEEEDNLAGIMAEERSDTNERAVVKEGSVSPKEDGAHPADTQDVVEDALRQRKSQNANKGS

[9] = molecular target: T7, AEA-DA lipid probe targets in Neuro2a cells (Mus musculus, UniProt P22315)
T7 sequence (P22315 54-422): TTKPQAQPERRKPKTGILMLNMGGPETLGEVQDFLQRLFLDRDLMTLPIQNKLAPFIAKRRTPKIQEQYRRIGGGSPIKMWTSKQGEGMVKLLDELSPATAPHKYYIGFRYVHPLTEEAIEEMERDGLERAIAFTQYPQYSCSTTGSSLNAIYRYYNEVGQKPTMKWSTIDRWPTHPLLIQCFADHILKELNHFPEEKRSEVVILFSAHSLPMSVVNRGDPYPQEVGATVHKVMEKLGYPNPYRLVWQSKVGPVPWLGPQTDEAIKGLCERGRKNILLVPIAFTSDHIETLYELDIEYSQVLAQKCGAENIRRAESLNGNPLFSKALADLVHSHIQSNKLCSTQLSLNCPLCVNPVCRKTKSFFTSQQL

CCCCC/C=C\C/C=C\C/C=C\C/C=C\CCCC(=O)NCCO [AEA, anandamide, reference compound]
SILAC ratio, CERS2 (Q924Z4) ([1]; competitor 200 μM): 2.4 | SILAC ratio, Cers2 ([1]; competitor 200 μM): 2.4 | SILAC ratio, Nampt ([2]; competitor 200 μM): 1.1 | SILAC ratio, EMD (O08579) ([3]; competitor 200 μM): 1.4 | SILAC ratio, Emd ([3]; competitor 200 μM): 1.4 | SILAC ratio Eef1d ([4]; competitor 200 μM): 1.1 | SILAC ratio, Timm17a ([5]; competitor 200 μM): 1.5 | SILAC ratio Zmpste24 ([6]; competitor 200 μM): 1.7 | SILAC ratio, Tmed10 ([7]; competitor 200 μM): 1.5 | SILAC ratio Tmx4 ([8]; competitor 200 μM): 1.9 | SILAC ratio, Fech ([9]; competitor 200 μM): 1.3

O=C(/C=C/c1cccnc1)NCCCCC1CCN(C(=O)c2ccccc2)CC1 [FK-866, reference compound]
SILAC ratio, CERS2 (Q924Z4) ([1]; competitor 25 μM): 1.2 | SILAC ratio, Cers2 ([1]; competitor 25 μM): 1.2 | SILAC ratio, Nampt ([2]; competitor 25 μM): 16.4 | SILAC ratio, EMD (O08579) ([3]; competitor 25 μM): 1.4 | SILAC ratio, Emd ([3]; competitor 25 μM): 1.4 | SILAC ratio Eef1d ([4]; competitor 25 μM): 1.2 | SILAC ratio, Timm17a ([5]; competitor 25 μM): 1.1 | SILAC ratio Zmpste24 ([6]; competitor 25 μM): 1.1 | SILAC ratio, Tmed10 ([7]; competitor 25 μM): 1.1 | SILAC ratio Tmx4 ([8]; competitor 25 μM): 1.0 | SILAC ratio, Fech ([9]; competitor 25 μM): 20.0

CN1CCN(C(=O)c2c(-c3ccccc3)c3cc([N+](=O)[O-])ccc3n2C)CC1 [KML110, (1-Methyl-5-nitro-3-phenyl-1H-indol-2-yl)(4-methylpiperazin-1-yl)methanone]
SILAC ratio, Cers2 ([1]; competitor 25 μM): 2.2 | SILAC ratio, Nampt ([2]; competitor 25 μM): 2.0 | SILAC ratio, Emd ([3]; competitor 25 μM): 1.7 | SILAC ratio Eef1d ([4]; competitor 25 μM): 1.4 | SILAC ratio, Timm17a ([5]; competitor 25 μM): 1.5 | SILAC ratio Zmpste24 ([6]; competitor 25 μM): 1.4 | SILAC ratio, Tmed10 ([7]; competitor 25 μM): 1.2 | SILAC ratio Tmx4 ([8]; competitor 25 μM): 1.4 | SILAC ratio, Fech ([9]; competitor 25 μM): 2.2

CN1CCN(C(=O)c2[nH]c3ccc([N+](=O)[O-])cc3c2-c2ccccc2)CC1 [MJN228, (4-Methylpiperazin-1-yl)(5-nitro-3-phenyl-1H-indol-2-yl)methanone]
SILAC ratio, CERS2 (Q924Z4) ([1]; competitor 25 μM): 3.1 | SILAC ratio, Cers2 ([1]; competitor 10 μM): 2.0 | SILAC ratio, Cers2 ([1]; competitor 25 μM): 3.1 | SILAC ratio, Cers2 ([1]; competitor 50 μM): 5.2 | SILAC ratio, Cers2 ([1]; competitor 100 μM): 6.8 | SILAC ratio, Nampt ([2]; competitor 25 μM): 1.2 | SILAC ratio, Nampt ([2]; competitor 50 μM): 1.0 | SILAC ratio, EMD (O08579) ([3]; competitor 25 μM): 2.4 | SILAC ratio, Emd ([3]; competitor 10 μM): 1.8 | SILAC ratio, Emd ([3]; competitor 25 μM): 2.4 | SILAC ratio, Emd ([3]; competitor 50 μM): 2.5 | SILAC ratio, Emd ([3]; competitor 100 μM): 4.5 | SILAC ratio Eef1d ([4]; competitor 25 μM): 1.3 | SILAC ratio Eef1d ([4]; competitor 100 μM): 1.4 | SILAC ratio, Timm17a ([5]; competitor 10 μM): 1.1 | SILAC ratio, Timm17a ([5]; competitor 25 μM): 1.4 | SILAC ratio, Timm17a ([5]; competitor 50 μM): 1.4 | SILAC ratio, Timm17a ([5]; competitor 100 μM): 2.7 | SILAC ratio Zmpste24 ([6]; competitor 10 μM): 1.1 | SILAC ratio Zmpste24 ([6]; competitor 25 μM): 1.2 | SILAC ratio Zmpste24 ([6]; competitor 50 μM): 1.3 | SILAC ratio Zmpste24 ([6]; competitor 100 μM): 1.9 | SILAC ratio, Tmed10 ([7]; competitor 10 μM): 1.1 | SILAC ratio, Tmed10 ([7]; competitor 25 μM): 1.4 | SILAC ratio, Tmed10 ([7]; competitor 50 μM): 1.5 | SILAC ratio, Tmed10 ([7]; competitor 100 μM): 1.6 | SILAC ratio Tmx4 ([8]; competitor 10 μM): 1.0 | SILAC ratio Tmx4 ([8]; competitor 25 μM): 1.3 | SILAC ratio Tmx4 ([8]; competitor 50 μM): 1.3 | SILAC ratio Tmx4 ([8]; competitor 100 μM): 1.6 | SILAC ratio, Fech ([9]; competitor 10 μM): 1.0 | SILAC ratio, Fech ([9]; competitor 25 μM): 2.4 | SILAC ratio, Fech ([9]; competitor 50 μM): 3.0 | SILAC ratio, Fech ([9]; competitor 100 μM): 2.9

C=CCN(C)CCCCCCOc1ccc(C(=O)c2ccc(Br)cc2)c(F)c1 [Ro 48-8071, reference compound]
SILAC ratio, CERS2 (Q924Z4) ([1]; competitor 25 μM): 1.6 | SILAC ratio, Cers2 ([1]; competitor 25 μM): 1.6 | SILAC ratio, Nampt ([2]; competitor 25 μM): 0.9 | SILAC ratio, EMD (O08579) ([3]; competitor 25 μM): 1.3 | SILAC ratio, Emd ([3]; competitor 25 μM): 1.3 | SILAC ratio Eef1d ([4]; competitor 25 μM): 0.9 | SILAC ratio, Timm17a ([5]; competitor 25 μM): 2.7 | SILAC ratio Zmpste24 ([6]; competitor 25 μM): 1.0 | SILAC ratio, Tmed10 ([7]; competitor 25 μM): 1.0 | SILAC ratio Tmx4 ([8]; competitor 25 μM): 1.2 | SILAC ratio, Fech ([9]; competitor 25 μM): 1.4

From patent publication US10168342B2, “Lipid probes and uses thereof” (THE SCRIPPS RESEARCH INSTITUTE, priority 2015, dated 2019)
